Measured values reported in patent US10854312B2, “Selective peptide antagonists” (BIONIZ, LLC, priority 2013, dated 2020).
No end group written: not given here.

Key:
[1] = test system: IL-2, -15 and -9; test: Inhibition of IL-2, -15 and -9 in human NK92 cell line and ex vivo human T cells; assay type: cell-based
Description: Human peripheral blood mononuclear cells were purified by the Ficoll-paque gradient centrifugation (GE-Healthcare) and stimulated by PHA (5 μg ml^−1, Sigma) for 48 h, then expanded with IL-2 (0.5 nM, Peprotech) for 48h, and then depleted of non-T cells by the Pan-T cell negative enrichment Ab cocktails (Miltenyi). The purified T cells were then fasted of IL-2 overnight prior to the proliferation assay by the tetrazolium dye method. Four hundred thousand cells (in 200 μl culture) were incubated with the cytokines and BNZ132-1 at the indicated concentrations for 24 h, and 20 μl WST1 reagent (Clontech) was added to each well. After 12 h incubation, OD450 was measured. The assay was performed in triplicate. […] NK 92 cells were cultured in human IL-2. Cells were washed to withdraw IL-2 for overnight and two hundred thousand cells (in 200 μl volume) were incubated with the indicated concentrations of the cytokine and BNZ132-1 for 24 h before 20 μl WST-1 reagent (Clontech) was added to each well to measure proliferative response. Absorbance at 450 nm was read at 6 h after the addition of the WST-1 dye. The assay was performed in triplicate. The assay was performed in triplicate and the figure represents a typical result out of 5 different HAM-TSP patients.
Next, the biochemical aspects of the BNZ132-1 inhibition of target cytokines were investigated. […]

[2] = test system: mouse IL-9 signal; test: Western blot of phosphorylation downstream of IL-9 in PT-18 cells; assay type: cell-based; conditions: 1 nM mouse IL-9, excess dose of BNZ132-1, 15 min
Description: PT-18 cells32 were fasted of IL-3 for 12 h prior to stimulation. Cells were stimulated with 1 nM mouse IL-4 or mouse IL-9 in the presence or absence of excess dose of BNZ132-1 ([…]) for 15 min and then cellular proteins were extracted. Phosphorylation of the indicated proteins was detected using phosphor-specific antibodies (Cell signaling), followed by ECL. IL-4 is the only γc-cytokine that induces the phosphorylation of STAT6. Note that only IL-4, but not IL-9, induced the tyrosine-phosphorylation of STAT6. […] Lanes: 1. no stimulation, 2. IL-4, 3. IL-4+BNZ132-1, 4. IL-9, 5. IL-9+BNZ132-1

For IKEFLQRFIHIVQSIINTS [BNZ132-1], the Ki ([1]; approximate, from the inhibitory concentrations (Cheng-Prusoff), read-out: binding affinity of BNZ132-1 to target cells) was 10 to 60 nM, the IC50 ([1]; human NK92 cell line and ex vivo human T cells, read-out: concentration at which IL-2, -15 and -9 are inhibited) was 50 to 150 nM and the “inhibition of IL-9 signal (phosphorylation, STAT5)” value [2] was “comprehensively inhibited”.
